Test results: US7626042B2, “O-substituted hydroxyaryl derivatives” (Institute of Medicinal Molecular Design, Inc., priority 2002, dated 2009)

Test system: NF-κB activation
Test: Inhibitory activity against NF-κB activation, luciferase reporter assay under TNF-α stimulation
Assay type: cell-based, human
Conditions: HepG2 cells, TNF-α 40 ng/ml, 4 hours; for inhibition at 1 µg/mL / inhibition at 10 µg/mL: Homo sapiens, read-out: Inhibitory Ratio of NF-κ B Activation(%)
Protocol: Inhibitory activity against NF-κB activation was measured by referring to the method of Hill et al. (Cell, (USA), in 1993, Vol. 73, No. 2, p. 395-406). Using a transfection reagent(Effectene; QIAGEN), the human hepatoma cell strain HepG2 was transfected with a plasmid (pNFκ Luc Reporter Plasmid; STRATAGENE) integrated with an oligonucleotide having five tandem copies of NF-κB binding sequences(TGGGGACTTTCCGC) on a upstream region of firefly luciferase gene (Luc) according to the QIAGEN's protocol, and the cells were incubated for 6 to 24 hours. Then the cells were cultured for 4 hours after the addition of TNF-α (40 ng/ml) in the presence of a test compound, and intracellular luciferase activity was measured by using PicaGene LT (TOYO INK MFG Co., Ltd.) and a chemical luminescence measurement apparatus(SPECTRAFluor Plus; TECAN). The inhibitory ratio was measured as a ratio relative to a value of the luciferase activity in the absence of the test compound.

| SMILES | Inhibitory Ratio of NF-κ B Activation(%) (Drug Concentration 1 μg/mL) | Inhibitory Ratio of NF-κ B Activation(%) (Drug Concentration 10 μg/mL) | inhibition at 1 µg/mL (Drug Concentration 1 μg/mL) [%] | inhibition at 10 µg/mL (Drug Concentration 10 μg/mL) [%] |
| --- | --- | --- | --- | --- |
| O=C(O)CN(CC(=O)O)C(=O)Oc1ccc(Cl)cc1C(=O)Nc1cc(C(F)(F)F)cc(C(F)(F)F)c1 [Compound 76] | 98.9 | 98.2 | – | – |
| O=C(CNC(=O)Oc1ccc(Cl)cc1C(=O)Nc1cc(C(F)(F)F)cc(C(F)(F)F)c1)N[C@@H](Cc1ccccc1)C(=O)O [Compound 62] | 96.8 | 97.8 | – | – |
| O=C(Nc1cc(C(F)(F)F)cc(C(F)(F)F)c1)c1ccc(Cl)cc1OC(=O)N1CCOCC1 [Compound 80, 4-Chloro-2-(morpholinocarbonyl)oxy-N-[3,5-bis(trifluoromethyl)phenyl]benzamide] | – | – | 91.4 | 68.4 |
| CC(C)(C)OC(=O)C[C@H](NC(=O)OC(C)(C)C)C(=O)Oc1ccc(Cl)cc1C(=O)Nc1cc(C(F)(F)F)cc(C(F)(F)F)c1 [Compound 30] | 96.4 | 97.0 | – | – |
| CC(C)NC(=O)Oc1ccc(Cl)cc1C(=O)Nc1cc(C(F)(F)F)cc(C(F)(F)F)c1 [Compound 54] | 96.0 | 98.0 | – | – |
| O=C(Nc1cc(C(F)(F)F)cc(C(F)(F)F)c1)c1cc(Cl)ccc1OC(=O)N1CCC(C(=O)O)CC1 [Compound 74] | 56.2 | 58.1 | – | – |
| O=C(Nc1cc(C(F)(F)F)ccc1C(F)(F)F)c1cc(Br)ccc1OP(=O)([O-])O.[Na+] [Compound 142] | >99.9 | – | – | – |
| Cl.Cl.NCCCC[C@H](N)C(=O)Oc1ccc(Cl)cc1C(=O)Nc1cc(C(F)(F)F)cc(C(F)(F)F)c1 [Compound 34] | 51.9 | 99.5 | – | – |
| CC(C)(C)OC(=O)CC(=O)Oc1ccc(Cl)cc1C(=O)Nc1cc(C(F)(F)F)cc(C(F)(F)F)c1 [Compound 17] | 97.0 | 96.8 | – | – |
| O=C(Nc1cc(C(F)(F)F)cc(C(F)(F)F)c1)c1cc(Cl)ccc1OCOC(=O)N1CCCCC1 [Compound 101, 5-Chloro-2-[(piperidinocarbonyl)oxy]methoxy-N-[3,5-bis(trifluoromethyl)phenyl]-benzamide] | – | – | 41 | 42.8 |
| CC(C)Oc1ccc(Cl)cc1C(=O)Nc1cc(C(F)(F)F)cc(C(F)(F)F)c1 [Compound 96] | 54.1 | 96.1 | – | – |
| O=C(Nc1cc(Cl)cc(Cl)c1)c1cc(Cl)ccc1OC(=O)N1CCOCC1 [Compound 89, 5-Chloro-N-(3,5-dichlorophenyl)-2-[(morpholinocarbonyl)oxy]benzamide] | – | – | 48.3 | 35.9 |
| O=C(Nc1cc(C(F)(F)F)cc(C(F)(F)F)c1)c1cc(C(F)(F)F)ccc1OC(=O)N1CCOCC1 [Compound 79, 2-(Morpholinocarbonyl)oxy-5-trifluoromethyl-N-[3,5-bis(trifluoromethyl)phenyl]-benzamide] | – | – | 88.1 | 70.2 |
| CSc1ccc(NC(=O)Oc2cc3ccccc3cc2C(=O)Nc2ccccc2)cc1 [Compound 66] | 12.2 | 41.4 | – | – |
| CC(C)(Oc1ccc(Cl)cc1)C(=O)Oc1ccc(Cl)cc1C(=O)Nc1cc(C(F)(F)F)cc(C(F)(F)F)c1 [Compound 16] | 96.6 | 98.4 | – | – |
| O=C(CCC(=O)Oc1ccc(Cl)cc1C(=O)Nc1cc(C(F)(F)F)cc(C(F)(F)F)c1)OCc1ccccc1 [Compound 18] | 95.4 | 98.1 | – | – |
| COCOc1ccc(Cl)cc1C(=O)Nc1cc(C(F)(F)F)cc(C(F)(F)F)c1 [Compound 97] | 21.6 | 94.4 | – | – |
| CC(C)S(=O)(=O)Oc1ccc(Cl)cc1C(=O)Nc1cc(C(F)(F)F)cc(C(F)(F)F)c1 [Compound 46] | 89.5 | 96.3 | – | – |
| CC(=O)NCC(=O)Oc1ccc(Cl)cc1C(=O)Nc1cc(C(F)(F)F)cc(C(F)(F)F)c1 [Compound 20] | 94.8 | 98.1 | – | – |
| O=C(O)C1Oc2ccc(Cl)cc2C(=O)N1c1cc(C(F)(F)F)cc(C(F)(F)F)c1 (stereo not shown) [Compound 116] | – | – | 35.1 | 20.1 |
| CC(C)(C)OC(=O)CC[C@H](NC(=O)OC(C)(C)C)C(=O)Oc1ccc(Cl)cc1C(=O)Nc1cc(C(F)(F)F)cc(C(F)(F)F)c1 [Compound 31, 2-[N-(tert-butoxycarbonyl)-γ-O-(tert-butyl)-α-L-glutamyl]oxy-5-chloro-N-[3,5-bis(trifluoromethyl)phenyl]benzamide] | 97.2 | 97.2 | – | – |
| CC(C)(C)C(=O)c1sc(NC(=O)c2cc(Cl)ccc2OC(=O)N2CCOCC2)nc1C(C)(C)C [Compound 92, 5-Chloro-N-{4-[(1,1-dimethyl)ethyl]-5-[(2,2-dimethyl)propionyl]thiazol-2-yl}-2-[(morpholinocarbonyl)oxy]benzamide] | – | – | 86.3 | 93.9 |
| CCOC(=O)CNC(=O)Oc1ccc(Cl)cc1C(=O)Nc1cc(C(F)(F)F)cc(C(F)(F)F)c1 [Compound 56, 5-chloro-2-{N-[(ethoxycarbonyl)methyl]carbamoyl}oxy-N-[3,5-bis(trifluoromethyl)-phenyl]benzamide] | – | – | 96.8 | 98.9 |
| CC(C)C[C@H](NC(=O)[C@H](Cc1ccccc1)NC(=O)OC(C)(C)C)C(=O)Oc1ccc(Cl)cc1C(=O)Nc1cc(C(F)(F)F)cc(C(F)(F)F)c1 [Compound 35, 2-{N-[N-(tert-butoxycarbonyl)-L-phenylalanyl]-L-leucyl}oxy-5-chloro-N-[3,5-bis(trifluoromethyl)phenyl]benzamide] | – | – | 96.9 | 98.3 |
| CC(C)(C)OC(=O)C[C@H](NC(=O)CNC(=O)Oc1ccc(Cl)cc1C(=O)Nc1cc(C(F)(F)F)cc(C(F)(F)F)c1)C(=O)OC(C)(C)C [Compound 63, (S)-2-[N-({N-[1,2-di(tert-butoxycarbonyl)ethyl]carbamoyl}-methyl)carbamoyl]oxy-5-chloro-N-[3,5-bis(trifluoromethyl)phenyl]benzamide] | – | – | 97.1 | 98.2 |
| O=C(Nc1cc(C(F)(F)F)ccc1Cl)c1cc(Cl)ccc1OP(=O)([O-])O.[Na+] [Compound 125] | >99.9 | >99.9 | – | – |
| CC(C)(C)OC(=O)NCCCC[C@H](NC(=O)OC(C)(C)C)C(=O)Oc1ccc(Cl)cc1C(=O)Nc1cc(C(F)(F)F)cc(C(F)(F)F)c1 [Compound 33, 5-chloro-2-[N^α,N^ε-di(tert-butoxycarbonyl)-L-lysyl]oxy-N-[3,5-bis(trifluoromethyl)phenyl]benzamide] | – | – | 96.6 | 98.6 |
| CC(C)C[C@H](NC(=O)OC(C)(C)C)C(=O)Oc1ccc(Cl)cc1C(=O)Nc1cc(C(F)(F)F)cc(C(F)(F)F)c1 [Compound 26, 2-[N-(tert-butoxycarbonyl)-L-leucyl]oxy-5-chloro-N-[3,5-bis(trifluoromethyl)phenyl]-benzamide] | – | – | 97.8 | 98.9 |
